From patent publication US6514747B2 (UT-Battelle, LLC, priority 1993, dated 2003)

Key:
3T3-L1 adipocytes = test: lipogenesis in 3T3-L1 adipocytes (FAS and SCD mRNA, FAS activity, triglyceride content); format: cell-based; conditions: nitrendipine alone
L6 skeletal myocytes = test: [Ca2+]i in L6 skeletal myocytes (fura 2); format: cell-based
untransfected 293 cells = test: adenylyl cyclase assay in untransfected 293 cells; format: cell-based, human; conditions: untransfected 293 cells
Experimental: 293 cells (5×10^5) and 293 cells expressing human TSH-R were preloaded with 5 μCi ^3H-adenine for 1.5 h at 37° C. in a 5% CO2 incubator.
Medium was aspirated and 2.5% perchloric acid containing 0.1 mM cAMP was used to stop the incubation. Adenylyl cyclase activity was calculated by determining the percent conversion of ^3H-adenine to ^3H-cAMP as described (Salomon, 1991; Johnson and Salomon, 1991). Correlation of cAMP accumulation measured in this assay with actual adenylyl cyclase activity is made under the assumption that isobutymethylxanthine effectively blocks cAMP degradation. Data represent means and standard deviations from triplicate data points.

[1] = system: aP212 and aP273 transgenic mice; test: daily insulin injections in aP2-agouti transgenic mice; format: in vivo, mouse
Experimental: All mice were maintained at Oak Ridge National Laboratory. The FVB/N mice were obtained from random-bred stock. All mice were fed a diet containing 11% fat by weight (Mouse Diet 5015; Purina), weaned at 4 wk of age, and subsequently weighed monthly. Food and water were obtained from ad libitum. All data are from mice that are hemizygous for the transgene.
Plasma and serum were obtained by retro-orbital sinus puncture from nonfasted mice between 9 am and 11 am. Plasma insulin levels were measured by radioimmunoassay (ICN) with porcine insulin as a standard. Blood glucose concentrations were determined by blood sampling from the tail vein followed by quantification via One-Touch™ glucose determination system (Johnson & Johnson).
Six- to ten-wk-old male mice were subcutaneously injected between 11 am and noon with Humulin U ultralente (Eli Lilly, Indianapolis, Ind.) at a daily dose of 0.5, 1, or 2 units/day per mouse. Insulin (100 units/ml) was diluted before injection with phosphate-buffered saline so that all mice received a 200-μl injection. A 1-ml syringe was filled with […] of the diluted insulin solution. To keep the insulin suspension as uniform as possible, it was mixed between each injection via plunger action.

[2] = target: T1, human melanocortin 1 receptor (hMC1R) (Homo sapiens, UniProt Q01726); test: [Ca2+]i in HEK-293 cells transfected with hMC1R; format: cell-based; conditions: 20 nM agouti, n = 8
T1 construct: The coding region of the human melanocortin 1, 3, and 5 receptor (hMC1R, hMC3R, and hMC5R) genes was amplified; expressed in transfected cells; host or cells: HEK-293 cells, cotransfected with pMT4 construct and pRSV-Neo, geneticin-selected clones
T1 sequence (Q01726 whole entry): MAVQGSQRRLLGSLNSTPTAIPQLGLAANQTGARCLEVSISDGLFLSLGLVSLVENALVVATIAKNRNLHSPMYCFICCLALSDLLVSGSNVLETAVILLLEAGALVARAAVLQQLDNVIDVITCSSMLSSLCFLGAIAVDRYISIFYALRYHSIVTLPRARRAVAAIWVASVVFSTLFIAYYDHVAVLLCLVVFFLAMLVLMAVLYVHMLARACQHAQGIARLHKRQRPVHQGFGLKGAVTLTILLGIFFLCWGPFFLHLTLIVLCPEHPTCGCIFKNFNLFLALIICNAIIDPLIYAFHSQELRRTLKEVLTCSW
Experimental: The coding region of the human melanocortin 1, 3, and 5 receptor (hMC1R, hMC3R, and hMC5R) genes was amplified by polymerase chain reaction and subcloned into the vector pMT4, and the sequence was verified. HEK-293 cells, which appear to lack endogenous melanocortin receptors (Lu et al., 1994), were cotransfected with pMT4 and pRSV-Neo by either calcium phosphate coprecipitation method or the use of Transfectam reagent (Promega). Clones were selected using 600 μg geneticin/ml. culture medium.
[Ca^2+]i was measured in L6, A7r5, and HEK-293 cells (Zemel et al., 1995) as previously described and in 3T3-L1 cells as described by Klip and Ramlal (1987). Monolayers of nonfused L6 cells and confluent A7r5 cells after 14-16 h of starvation in a serum-free culture medium were rinsed with Hanks' balanced salt solution (HBSS), detached by incubation in 2 ml trypsin (0.05%) for 2-3 min at 37° C., and released by pipetting without trypsinization. Cells were harvested by centrifugation at 50 g and resuspended in 1 ml HBSS at a density of ˜10^6 cells/ml. For 3T3-L1 cells, monolayers of differentiated adipocytes were rinsed with serum-free DMEM and exposed to 0.05% trypsin for 3 min. The solution was decanted, and the cells were incubated for 3 min in culture medium. Cells were detached by pipetting and collected by centrifugation at 50 g. Cells were then incubated in culture medium to recover for 1 h followed by incubation in serum-free DMEM for 4 h at 37° C. in an atmosphere of 5% CO2, collected by centrifugation, and resuspended in HBSS at a density of ˜10^6 cells/ml. Cell suspensions were chilled on ice for 5 min and loaded with […] (final concn) fura 2 acetoxymethyl ester (AM; Sigma) in the dark for 20 min at 37° C. For 3T3-L1 adipocytes, the chilling step was skipped. […] [Ca^2+]i levels were then measured fluorometrically in suspensions using dual excitation (340 and 380 nm)-single emission (510 nm) fluorometry as previously described (Zemel et al., 1995). [Ca^2+]i was then calculated by the computer in the fluorometer with the equation of Grynkiewicz et al. (1985). […]

[3] = target: T2, human melanocortin 3 receptor (hMC3R) (Homo sapiens, UniProt P41968); test: [Ca2+]i in HEK-293 cells transfected with hMC3R; format: cell-based; conditions: 20 nM agouti, n = 8
T2 construct: The coding region of the human melanocortin 1, 3, and 5 receptor (hMC1R, hMC3R, and hMC5R) genes was amplified; expressed in transfected cells; host or cells: HEK-293 cells, cotransfected with pMT4 construct and pRSV-Neo, geneticin-selected clones
T2 sequence (P41968 whole entry): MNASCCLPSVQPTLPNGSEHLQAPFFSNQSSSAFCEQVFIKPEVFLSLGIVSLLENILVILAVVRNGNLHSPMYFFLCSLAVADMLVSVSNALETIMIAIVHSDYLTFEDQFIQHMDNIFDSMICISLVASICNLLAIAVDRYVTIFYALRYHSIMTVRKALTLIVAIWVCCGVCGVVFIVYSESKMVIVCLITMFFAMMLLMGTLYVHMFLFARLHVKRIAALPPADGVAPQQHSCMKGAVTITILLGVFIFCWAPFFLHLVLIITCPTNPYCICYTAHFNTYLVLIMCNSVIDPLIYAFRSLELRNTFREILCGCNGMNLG
Experimental: [Ca^2+]i was measured in L6, A7r5, and HEK-293 cells (Zemel et al., 1995) as previously described and in 3T3-L1 cells as described by Klip and Ramlal (1987). Monolayers of nonfused L6 cells and confluent A7r5 cells after 14-16 h of starvation in a serum-free culture medium were rinsed with Hanks' balanced salt solution (HBSS), detached by incubation in 2 ml trypsin (0.05%) for 2-3 min at 37° C., and released by pipetting without trypsinization. Cells were harvested by centrifugation at 50 g and resuspended in 1 ml HBSS at a density of ˜10^6 cells/ml. For 3T3-L1 cells, monolayers of differentiated adipocytes were rinsed with serum-free DMEM and exposed to 0.05% trypsin for 3 min. The solution was decanted, and the cells were incubated for 3 min in culture medium. Cells were detached by pipetting and collected by centrifugation at 50 g. Cells were then incubated in culture medium to recover for 1 h followed by incubation in serum-free DMEM for 4 h at 37° C. in an atmosphere of 5% CO2, collected by centrifugation, and resuspended in HBSS at a density of ˜10^6 cells/ml. […] [Ca^2+]i levels were then measured fluorometrically in suspensions using dual excitation (340 and 380 nm)-single emission (510 nm) fluorometry as previously described (Zemel et al., 1995). [Ca^2+]i was then calculated by the computer in the fluorometer with the equation of Grynkiewicz et al. (1985). […]

[4] = system: isolated human adipocytes; test: [Ca2+]i in isolated human adipocytes; format: cell-based

Molecule: CCOC(=O)C1=C(C)NC(C)=C(C(=O)OC)C1c1cccc([N+](=O)[O-])c1 (stereo not drawn) [nitrendipine, reference compound]
- effect on FAS activity or triglyceride content (3T3-L1 adipocytes): no effect
- reduction of [Ca2+]i response to 50 nM agouti (L6 skeletal myocytes; 30 μM nitrendipine): ~50%
- [Ca2+]i response to 50 nM agouti (L6 skeletal myocytes; with 30 μM nitrendipine): 22 ± 6 nM

Molecule: α-melanocyte-stimulating hormone [α-MSH, reference compound]
- effect on the cAMP pathway (untransfected 293 cells): no effect

Molecule: insulin: Humulin U ultralente (Eli Lilly), injected subcutaneously
- time for blood glucose levels to return to normal after insulin injection ([1]; 1 unit per mouse s.c., aP212 mice and littermates): ≤ 24 h
- average rate of weight gain, insulin-injected transgenic mice vs control mice ([1]; 2 units of insulin per day per mouse s.c., 7 days): 1.7 fold

B1: human agouti: recombinant human agouti protein (132 amino acids, SEQ ID NO:4) produced in baculovirus-infected T. ni cells (protein)
chain: MDVTRLLLATLLVFLCFFTANSHLPPEEKLRDDRSLRSNSSVNLLDVPSVSIVALNKKSKQIGRKAAEKKRSSKKEASMKKVVRPRTPLSAPCVATRNSCKPPAPACCDPCASCQCRFFRSACSCRVLSLNC
modifications: Homo sapien
- [Ca2+]i Increase over Baseline [2]: 57 ± 9
- [Ca2+]i Increase over Baseline [3]: 77 ± 14
- [Ca2+]i [4]: stimulate an increase
